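Assay format: 96-well plates, 48-hour exposure. TGI is the concentration that stops growth completely.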
What was measured:
Experiment in all cases: NCI tumour cell line growth inhibition, 48 h
[1] = system: LXFL 529 NSCLC
[2] = system: RXF-631 renal
[3] = system: OVCAR-3 ovarian
[4] = system: DMS 273 small cell lung
[5] = system: SW-620 colon
[6] = system: M19-MEL melanoma
[7] = system: KM20L2 colon
[8] = system: DMS 114 small cell lung
[9] = system: XF 498 CNS
[10] = system: TK-10 renal
[11] = system: HOP-18 NSCLC
[12] = system: DLD-1 colon
[13] = system: RPMI-8226 leukemia
[14] = system: ACHN renal
[15] = system: SNB-78 CNS

Row | SMILES | TGI [1] | TGI [2] | TGI [3] | TGI [4] | TGI [5] | TGI [6] | TGI [7] | TGI [8] | TGI [9] | TGI [10] | TGI [11] | TGI [12] | TGI [13] | TGI [14] | TGI [15]
1 | CCOP1(=O)C=C(C)C(Cl)=C(C)C1 (stereo not given) | 44.5 µM | 30.5 µM | > 100 µM | 30.8 µM | 53.5 µM | > 100 µM | > 100 µM | 44.9 µM | 75.2 µM | 96.7 µM | > 100 µM | > 100 µM | 62.6 µM | 72.2 µM | –
2 | CC12CCC(=O)N1c1ccc([N+](=O)[O-])cc1N2 (stereo not given) | > 100 µM | – | > 100 µM | > 100 µM | > 100 µM | > 100 µM | > 100 µM | > 100 µM | – | – | > 100 µM | > 100 µM | > 100 µM | > 100 µM | > 100 µM
3 | CC1(C)CC(=O)C(/C(=N/NC(=S)NN)C(=O)Nc2nc3ccc([N+](=O)[O-])cc3s2)C(=O)C1 | > 100 µM | – | > 100 µM | – | > 100 µM | > 100 µM | > 100 µM | > 100 µM | > 100 µM | > 100 µM | > 100 µM | > 100 µM | – | > 100 µM | > 100 µM
4 | C/C(=C\CBr)CCC(Br)C(C)(C)Cl (stereo not given) | > 100 µM | – | – | > 100 µM | > 100 µM | > 100 µM | – | > 100 µM | – | > 100 µM | > 100 µM | > 100 µM | > 100 µM | > 100 µM | > 100 µM
5 | CN(C)C(=NCc1ccccc1)NC#N | > 100 µM | – | > 100 µM | > 100 µM | > 100 µM | > 100 µM | > 100 µM | – | – | > 100 µM | – | > 100 µM | – | > 100 µM | > 100 µM
6 | C/C=C/C#CC#C/C=C/C=C/C(O)CCO (stereo not given) | > 23.1 µM | – | > 23.1 µM | > 23.1 µM | > 23.1 µM | > 23.1 µM | > 23.1 µM | > 23.1 µM | > 23.1 µM | > 23.1 µM | > 23.1 µM | > 23.1 µM | > 23.1 µM | > 23.1 µM | > 23.1 µM
7 | O=C(CCC1C(=O)NC(=S)NC1=O)c1ccc2ccccc2c1 | > 100 µM | – | > 100 µM | > 100 µM | > 100 µM | > 100 µM | > 100 µM | > 100 µM | – | > 100 µM | > 100 µM | > 100 µM | – | > 100 µM | > 100 µM
